Experiment [1] concerns the target T1, IP6K2^wt (Homo sapiens, UniProt Q9UHH9).
T1 construct: made in house; host or cells: E. coli Arctic Express
T1 sequence (Q9UHH9 1-426): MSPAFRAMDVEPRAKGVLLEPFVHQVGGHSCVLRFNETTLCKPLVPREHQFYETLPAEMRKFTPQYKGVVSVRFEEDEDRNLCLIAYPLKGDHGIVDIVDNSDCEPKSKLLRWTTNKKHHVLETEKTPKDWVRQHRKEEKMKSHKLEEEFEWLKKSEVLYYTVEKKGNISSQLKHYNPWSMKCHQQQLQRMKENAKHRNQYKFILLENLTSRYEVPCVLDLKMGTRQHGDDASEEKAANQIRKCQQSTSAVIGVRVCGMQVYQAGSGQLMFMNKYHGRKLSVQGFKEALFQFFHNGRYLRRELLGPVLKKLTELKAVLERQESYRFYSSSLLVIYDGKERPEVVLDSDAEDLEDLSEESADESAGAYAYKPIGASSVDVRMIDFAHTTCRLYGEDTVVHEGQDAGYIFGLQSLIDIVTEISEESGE
The experiment can be described thus: NMR activity assay, [13C6]-InsP6 to 5PP-InsP5. The class given is biochemical. Here is the method:
(§1) The NMR assay for IP6K activity was performed similarly as described before ([Harmel et al., 2019]) with slight alterations. Enzyme assays were performed in D2O in a total volume of 150 µl containing 20 mM 4-(2-hydroxyethyl)-1-piperazineethanesulfonic acid (HEPES) pH* 6.8, 50 mM NaCl, 6 mM MgCl2, 1 mM ATP, 0.2 mg/ml BSA, 1 mM DTT, 5 mM creatine phosphate and 1 U/ml creatine kinase (ATP-regenerating system) and 50 nM kinase if not otherwise stated. HEPES, NaCl, and BSA were prepared as buffer A and DTT and creatine phosphate as buffer B in D2O and were adjusted to pH* 6.8, respectively. If applicable, inhibitor was added as a DMSO-d6 stock in a twofold dilution series at a final DMSO concentration of 1% if not otherwise mentioned. Otherwise, DMSO-d6 was added to the same percentage. The samples were equilibrated at 37°C for 3 min and the reaction initiated by adding 100 µM [^13C6]-InsP6.

For experiment [2], the target named is T2, IP6K2^L206V (Homo sapiens, UniProt Q9UHH9, L206V).
T2 construct: made in house; host or cells: E. coli Arctic Express
T2 sequence (Q9UHH9 1-426 L206V): T1 sequence (Q9UHH9 1-426) with L206V
The experiment can be described thus: NMR activity assay, [13C6]-InsP6 to 5PP-InsP5. The experiment is classed as biochemical. Here is the method:
as §1

Experiment [3] addresses T3, MBP-HsIP6K1^wt (Homo sapiens, UniProt Q92551).
T3 construct: made in house; host or cells: E. coli Arctic Express
The experiment can be described thus: Hydrogen deuterium exchange mass spectrometry (HDX-MS), apo vs inhibitor-bound. Conditions: IP6K1^wt apo vs inhibitor-bound. The experiment is classed as binding. Here is the method:
(§2) Prior to initiation of deuterium exchange reactions, enzymes were incubated with inhibitor or DMSO blank for 15 min at RT (final concentration: 3 µM enzyme, 50 µM inhibitor, in a buffer consisting of 20 mM HEPES 7.4, 50 mM NaCl, 1% DMSO). From this mixture, 5 µl was taken per sample and 45 µl of deuterated buffer was added to initiate deuterium exchange (final concentrations: 300 nM enzyme, 5 µM inhibitor; final buffer concentration: 20 mM HEPES 7.4, 50 mM NaCl, 85.63% deuterium, 0.1% DMSO). Reactions were carried out in triplicate at 3 (3, 30, and 300 s) or four different time points (0.3, 3, 30, and 300 s) and were quenched by the addition of 20 µl of ice-cold quench buffer (final concentration: 0.57 M GuaHCL, 0.86% formic acid). Samples were snap-frozen in liquid nitrogen and then stored at −80°C until mass analysis.
(§3) Samples were rapidly thawed and injected onto an ultra-performance liquid chromatography (UPLC) at 2°C. […] Peptides were identified using data-dependent acquisition methods following tandem MS/MS experiments. MS/MS datasets were analyzed using MaxQuant against a database of purified proteins and known contaminants with an false discovery rate (FDR) cut-off of 1%.
(§4) Deuterium incorporation of peptides was automatically calculated using HDExaminer Software (Sierra Analytics). […]

The target of experiment [4] is T4, MBP-HsIP6K1^L210V (Homo sapiens, UniProt Q92551, L210V).
T4 construct: made in house; host or cells: E. coli Arctic Express
T4 sequence (Q92551 whole entry L210V): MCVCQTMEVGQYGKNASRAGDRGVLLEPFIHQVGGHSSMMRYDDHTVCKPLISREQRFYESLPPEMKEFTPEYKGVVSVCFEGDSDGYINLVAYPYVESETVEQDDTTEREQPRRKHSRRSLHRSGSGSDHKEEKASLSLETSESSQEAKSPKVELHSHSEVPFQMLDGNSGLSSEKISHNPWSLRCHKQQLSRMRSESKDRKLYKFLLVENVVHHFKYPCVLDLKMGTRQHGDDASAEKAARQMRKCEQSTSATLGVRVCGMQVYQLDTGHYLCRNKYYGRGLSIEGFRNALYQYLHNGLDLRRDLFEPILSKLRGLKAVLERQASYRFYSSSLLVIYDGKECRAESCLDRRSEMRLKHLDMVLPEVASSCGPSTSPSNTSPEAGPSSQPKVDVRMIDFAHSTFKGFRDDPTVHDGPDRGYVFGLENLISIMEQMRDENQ
Described as above. The class given is binding. The settings on record: IP6K1^L210V apo vs bound to FMP-201300. Here is the method:
as §2, §3, §4

Positions count from the first letter of the chain named. Like-named read-outs stand apart in the source and are kept apart here.

T3 sequence (Q92551 whole entry): as the sequence (Q92551 whole entry L210V) above, with V210L counted along it

For `O=C(O)c1ccc2c(c1)C(=O)N(c1ccc(-c3nc4ccc(N5C(=O)c6ccc(C(=O)O)cc6C5=O)cc4[nH]3)cc1)C2=O` [FMP-201300], the IC50 is 2140 nM in experiment [1], 2140 nM in experiment [1] (Figure 4b) and 186 nM in experiment [2] (NMR assay). Moreover, in experiment [2] (ratio of IC50 values), the “times more potent against IP6K2^L206V compared to IP6K2^wt” value is given as 11. Further, the “change in deuterium incorporation upon inhibitor binding” value in experiment [3] is “no significant changes in deuterium incorporation were observed”. The “change in deuterium exchange rates upon inhibitor binding” value in experiment [4] was “Major decreases in exchange rates were observed in proximity to the ATP-binding site”.

One may read the IC50 as the midpoint of a concentration-inhibition curve. Read a low IC50 as greater potency in that assay.
